The subject of test [1] is AsPC-1 (homozygous mutant KRAS G12D human pancreatic cell line). Nature of the test: KRAS 3D-Cell Proliferation Assay, AsPC-1 (CellTiter-Glo 3D, 7 days). Format: cell-based. The conditions noted are these: AsPC-1 3D culture, read-out: Prolif AsPC-1 3D ATP IC50. As for the experimental part: (§1) Example 503: KRAS 3D-Cell Proliferation Assays. Cellular potencies of compounds are assessed by evaluating inhibition of proliferation in 3D cultures of homozygous mutant KRAS G12D human pancreatic cell lines (AsPC-1 and HPAC) as compared to a KRAS wild type human lung adenocarcinoma cell line (PC-9 and/or H1975). Cells are seeded into 384-well black round-bottom, ultra-low attachment assay plates in 50 uL cell growth medium (RPMI-1640 with 10% fetal bovine serum and 2 mM L-glutamine). After overnight incubation at 37° C. and 5% CO2, compounds solubilized in DMSO are added as dilution series to the wells in a total volume of 150 nL (0.3% DMSO final). The cells are incubated for 7 days at 37° C. and 5% CO2. Cell proliferation is quantitated by addition of 40 uL/well of CellTiter-GloO 3D (Promega), and the well contents are mixed 20× at high speed using liquid handling automation workstation (Bravo with 384-well head) and centrifuged at 1500 rpm for 2 minutes to eliminate bubbles. This reagent in combination with mechanical disruption releases the cellular ATP to promote activity in a luciferase-based enzyme/substrate chemiluminescent detection system. After a 30-minute incubation under ambient conditions with shaking and an additional 10 minutes without shaking, the luminescence is read on a plate reader (e.g. EnVision [PerkinElmer]). The results are normalized to percent inhibition based on the following control samples: DMSO (0% inhibition) and 1 uM staurosporine (100% inhibition). The normalized luminescence results are plotted against compound concentration, and the data are fit to a 4-parameter Hill equation to determine the IC50 values.
A general note: In ATP-based viability assays light output follows the ATP content of the culture.

Test [2] has as its target T1, KRAS WT (Homo sapiens (Human), UniProt P01116). Nature of the test: KRAS WT Biochemical Assay, BODIPY-GDP Exchange TR-FRET (Example 501; 3 nM KRAS WT, 3 nM SOS1, 60-minute incubation). In outline:
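SOS1-mediated exchange assay: 3 nM biotin-KRAS WT with terbium-streptavidin, started with 3 nM SOS1 and 300 nM BODIPY-GDP, HEPES pH 7.5 with MgCl2. TR-FRET (520/490 nm) read after 60 min; normalized to DMSO and full-inhibition control, IC50 from 4-parameter Hill fit.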

In another test the target is KRAS G12D (Homo sapiens (Human), UniProt P01116, G12D). Nature of the test: KRAS G12D LoEnz Biochemical Assay, BODIPY-GDP Exchange TR-FRET (SOS1-mediated nucleotide exchange). The conditions noted are these: read-out: KRas (G12D) GDP HTRF IC50. In general terms: TR-FRET usually uses a lanthanide donor and a delayed reading to cut background.
KRAS G12D, sequence (P01116-2 other isoform, or with tags, fused parts or gaps G12D): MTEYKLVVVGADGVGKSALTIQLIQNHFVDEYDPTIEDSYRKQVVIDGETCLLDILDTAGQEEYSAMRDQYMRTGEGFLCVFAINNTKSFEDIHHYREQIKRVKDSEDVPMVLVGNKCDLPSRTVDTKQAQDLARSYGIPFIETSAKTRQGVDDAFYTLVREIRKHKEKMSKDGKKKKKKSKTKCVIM
Test [3] has as its system HPAC (homozygous mutant KRAS G12D human pancreatic cell line). Nature of the test: KRAS 3D-Cell Proliferation Assay, HPAC (CellTiter-Glo 3D, 7 days). In kind it is cell-based. The conditions noted are these: HPAC 3D culture, read-out: Prolif HPAC 3D ATP IC50. In short, it runs like this:
(§2)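 Cells were grown as 3D cultures in ultra-low attachment plates in RPMI-1640 with 10% FBS and 2 mM glutamine. Compound dilution series (0.3% DMSO final) were added after overnight culture, and plates were incubated for 7 days at 37 °C. CellTiter-Glo 3D luminescence was normalised to DMSO and 1 uM staurosporine, and IC50 was taken from 4-parameter Hill fits.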

Test [4] deals with H1975 (KRAS wild type human lung adenocarcinoma cell line). Nature of the test: KRAS 3D-Cell Proliferation Assay, H1975 (CellTiter-Glo 3D, 7 days). Format: cell-based. The conditions noted are these: H1975 3D culture, read-out: Prolif H1975 3D ATP IC50. In outline:
as §2

For test [5], the system named is PC-9 (KRAS wild type human lung adenocarcinoma cell line). Nature of the test: KRAS 3D-Cell Proliferation Assay, PC-9 (CellTiter-Glo 3D, 7 days). In kind it is cell-based. The conditions noted are these: PC-9 3D culture, read-out: Prolif PC9 3D ATP IC50. As for the experimental part: as §1
The target of test [6] is T1, KRAS WT. Nature of the test: KRAS WT Biochemical Assay, BODIPY-GDP Exchange TR-FRET (Example 502; 0.06 nM KRAS WT, 15 nM GDP, 300 nM SOS1, 120-minute incubation). The conditions noted are these: read-out: KRas HTRF IC50. In outline:
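IC50 from a 4-parameter Hill fit of percent inhibition, itself the TR-FRET 520/490 nm ratio scaled between DMSO and a fully inhibiting control. Reaction: 300 nM SOS1 and 300 nM BODIPY-GDP added to preformed 0.06 nM KRAS WT/15 nM GDP/Tb-streptavidin complex; 120 min incubation; pH 7.5 HEPES, MgCl2, DTT.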

Setting [7] is: read-out: KRas(wt) GDP HTRF IC50.

Several values for one entry are separate records, joined by “and”; a condition that tells them apart may be missing. Equal entries are not always repeated. Where two headings read alike, the source gives them in different places.

T1 sequence (P01116-2 other isoform, or with tags, fused parts or gaps): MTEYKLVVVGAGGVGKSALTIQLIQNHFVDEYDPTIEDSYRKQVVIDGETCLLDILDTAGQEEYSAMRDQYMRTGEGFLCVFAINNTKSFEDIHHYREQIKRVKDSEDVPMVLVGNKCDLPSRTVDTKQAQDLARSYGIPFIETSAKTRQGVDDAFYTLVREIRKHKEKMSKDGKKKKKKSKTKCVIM

By IC50 is commonly meant the concentration needed to halve the response being measured. For the compound `Cc1c(F)c(N)cc(-c2nc3c4c(nc(OC[C@@]56CCCN5C[C@H](F)C6)nc4c2F)N2C[C@H]4CC[C@H](N4)[C@@H]2C(C)O3)c1C(F)(F)F` (single isomer, unassigned) [237 (isomer 2)], the IC50 was 200 nM in test [1] (Homo sapiens, ASPC1, 168 h); 0.35 nM at KRAS WT [2] (read-out: KRas HTRF IC50); 0.15 nM at KRAS G12D.

With `Cc1c(F)c(N)cc(-c2nc3c4c(nc(OC[C@]56CCN(C)C5COC6)nc4c2F)N2C[C@H]4CC[C@H](N4)[C@H]2[C@H](C)O3)c1C(F)(F)F` (single isomer, unassigned) [258 (isomer 2)], the IC50 in test [3] (Homo sapiens, HPAC, 168 h) was found to be 2.68 nM; in test [1] (Homo sapiens, ASPC1, 168 h), 6.9 nM; on KRAS WT [2] (read-out: KRas HTRF IC50), 11 nM; in test [4] (Homo sapiens, NCI-H1975, 168 h) it was 1550 nM; on KRAS G12D it was 0.07 nM.

On to `Cc1cc(N)c(F)c(-c2nc3c4c(nc(OCC56CCN5CC(F)(F)C6)nc4c2F)N2C[C@H]4CC[C@H](N4)[C@H]2[C@H](C)O3)c1` (single isomer, unassigned) [Compound 23], for which the concentration for half-maximal inhibition (IC50) was 20000 nM in test [1]; 39500 nM and 94500 nM at KRAS WT [2] (setting [7]).

For `Cc1c(F)c(N)cc(-c2nc3c4c(nc(OC[C@]5(CN6CC7(COC7)C6)CC5(F)F)nc4c2F)N2C[C@H]4CC[C@H](N4)[C@H]2[C@H](C(F)(F)F)O3)c1C(F)(F)F` (stereo in doubt) [255 a, 5-((5R,5aS,6S,9R)-12-(((R)-1-((2-oxa-6-azaspiro[3.3]heptan-6-yl)methyl)-2,2-difluorocyclopropyl)methoxy)-1-fluoro-5-(trifluoromethyl)-5a,6,7,8,9,10-hexahydro-5H-4-oxa-3,10a,11,13,14-pentaaza[6,9]methanonaphtho[1,8-ab]heptalen-2-yl)-2-fluoro-3-methyl-4-(trifluoromethyl)aniline], the IC50 worked out at 1.66 nM in test [3]; 6.6 nM in test [1] (Homo sapiens, ASPC1, 168 h); 1.39 nM at KRAS WT [2] (read-out: KRas HTRF IC50); 120 nM in test [4]; 0.41 nM at KRAS G12D.

With `Cc1c(F)c(N)cc(-c2nc3c4c(nc(OC[C@]5(CN6CC7(COC7)C6)CC5(F)F)nc4c2F)N2C[C@H]4CC[C@H](N4)[C@H]2[C@H](C(F)(F)F)O3)c1C(F)(F)F` (stereo in doubt) [255 b, 5-((5R,5aS,6S,9R)-12-(((R)-1-((2-oxa-6-azaspiro[3.3]heptan-6-yl)methyl)-2,2-difluorocyclopropyl)methoxy)-1-fluoro-5-(trifluoromethyl)-5a,6,7,8,9,10-hexahydro-5H-4-oxa-3,10a,11,13,14-pentaaza[6,9]methanonaphtho[1,8-ab]heptalen-2-yl)-2-fluoro-3-methyl-4-(trifluoromethyl)aniline], the IC50 in test [3] turned out to be 4.21 nM; in test [1], 4.7 nM; at KRAS WT [2] (read-out: KRas HTRF IC50), 1.17 nM; in test [4], 308 nM; at KRAS G12D, 0.27 nM.

With `C#Cc1cccc2cc(O)cc(-c3nc4c5c(nc(OC[C@@]67CCCN6C[C@H](F)C7)nc5c3F)N3C[C@H]5CC[C@H](N5)[C@H]3CO4)c12` [Compound 3, 5-ethynyl-4-((5aS,6S,9R)-1-fluoro-12-(((2R,7aS)-2-fluorotetrahydro-1H-pyrrolizin-7a(5H)-yl)methoxy)-5a,6,7,8,9,10-hexahydro-5H-4-oxa-3,10a,11,13,14-pentaaza-6,9-methanonaphtho[1,8-ab]heptalen-2-yl)naphthalen-2-ol], the IC50 on KRAS WT [2] (setting [7]) was 0.517 nM; in test [5] (Homo sapiens, PC-9, 168 h), 20000 nM; at KRAS G12D, 0.058 nM; at KRAS WT [6], 0.757 nM.

`Cc1cc(N)cc(-c2nc3c4c(nc(OC[C@@]56CCCN5C[C@H](F)C6)nc4c2F)N2C[C@H]4CC[C@H](N4)[C@H]2[C@H](C)O3)c1C(F)(F)F` [Compound 16, 3-((5S,5aS,6S,9R)-1-fluoro-12-(((2R,7aS)-2-fluorotetrahydro-1H-pyrrolizin-7a(5H)-yl)methoxy)-5-methyl-5a,6,7,8,9,10-hexahydro-5H-4-oxa-3,10a,11,13,14-pentaaza-6,9-methanonaphtho[1,8-ab]heptalen-2-yl)-5-methyl-4-(trifluoromethyl)aniline]: the half-maximal inhibitory concentration (IC50) was found to be 0.668 nM at KRAS WT [2] (setting [7]); 20000 nM in test [5] (Homo sapiens, PC-9, 168 h); 0.138 nM on KRAS G12D; 0.484 nM at KRAS WT [6].

In the case of `C=C1CN2CCC[C@@]2(COc2nc3c4c(nc(-c5nc(N)cc(C)c5C(F)(F)F)c(F)c4n2)O[C@@H](C)[C@@H]2[C@@H]4CC[C@H](CN32)N4)C1` [Compound 48, 6-((5S,5aS,6S,9R)-1-fluoro-5-methyl-12-(((S)-2-methylenetetrahydro-1H-pyrrolizin-7a(5H)-yl)methoxy)-5a,6,7,8,9,10-hexahydro-5H-4-oxa-3,10a,11,13,14-pentaaza-6,9-methanonaphtho[1,8-ab]heptalen-2-yl)-4-methyl-5-(trifluoromethyl)pyridin-2-amine], the 50% inhibitory concentration (IC50) at KRAS WT [2] (setting [7]) stood at 10.5 nM; in test [5] (Homo sapiens, PC-9, 168 h) it was 20000 nM; at KRAS G12D, 0.491 nM; on KRAS WT [6], 28.5 nM.

In the case of `Nc1nc2c(-c3nc4c5c(ncnc5c3F)N3C[C@H]5CC[C@H](N5)[C@H]3CO4)ccc(F)c2s1` [Compound 55, 7-fluoro-4-((5aS,6S,9R)-1-fluoro-5a,6,7,8,9,10-hexahydro-5H-4-oxa-3,10a,11,13,14-pentaaza-6,9-methanonaphtho[1,8-ab]heptalen-2-yl)benzo[d]thiazol-2-amine], the IC50 was 20000 nM in test [1] (Homo sapiens, ASPC1, 168 h); 200000 nM at KRAS WT [2] (setting [7]); 22200 nM at KRAS G12D.

Consider `C[C@@H]1Oc2nc(-c3nc(N)ccc3C(F)(F)F)c(F)c3nc(OC[C@@]45CCCN4C[C@H](F)C5)nc(c23)N2C[C@H]3CC[C@H](N3)[C@@H]12` [Compound 85, 6-((5S,5aS,6S,9R)-1-fluoro-12-(((2R,7aS)-2-fluorotetrahydro-1H-pyrrolizin-7a(5H)-yl)methoxy)-5-methyl-5a,6,7,8,9,10-hexahydro-5H-4-oxa-3,10a-11,13,14-pentaaza-6,9-methanonaphtho[1,8-ab]heptalen-2-yl)-5-(trifluoromethyl)pyridin-2-amine], for which the IC50 in test [5] (Homo sapiens, PC-9, 168 h) turned out to be 20000 nM; on KRAS G12D, 3.28 nM; at KRAS WT [6] it was 678 nM.

As to `C[C@@H]1Oc2nc(-c3nc(N)c(F)cc3C(F)(F)F)c(F)c3nc(OC[C@]45CCN4CC(F)(F)C5)nc(c23)N2C[C@H]3CC[C@H](N3)[C@@H]12` [Compound 87, 6-((5S,5aS,6S,9R)-12-(((R)-3,3-Difluoro-1-azabicyclo[3.2.0]heptan-5-yl)methoxy)-1-fluoro-5-methyl-5a,6,7,8,9,10-hexahydro-5H-4-oxa-3,10a,11,13,14-pentaaza-6,9-methanonaphtho[1,8-ab]heptalen-2-yl)-3-fluoro-5-(trifluoromethyl)pyridin-2-amine], the half-maximal inhibitory concentration (IC50) turned out to be 20000 nM in test [5] (Homo sapiens, PC-9, 168 h); 68.9 nM on KRAS G12D; 16100 nM on KRAS WT [6].

Consider `Cc1cc(N)c(F)c(-c2nc3c4c(nc(OC[C@@]56CCN5CC(F)(F)C6)nc4c2F)N2C[C@H]4CC[C@H](N4)[C@H]2[C@H](C)O3)c1C(F)(F)F` [Compound 92, 3-((5S,5aS,6S,9R)-12-(((S)-3,3-Difluoro-1-azabicyclo[3.2.0]heptan-5-yl)methoxy)-1-fluoro-5-methyl-5a,6,7,8,9,10-hexahydro-5H-4-oxa-3,10a,11,13,14-pentaaza-6,9-methanonaphtho[1,8-ab]heptalen-2-yl)-2-fluoro-5-methyl-4-(trifluoromethyl)aniline], for which the IC50 in test [5] is 8130 nM; on KRAS G12D it was 0.76 nM and 1.01 nM; at KRAS WT [6] it was 34.9 nM and 148 nM.
